Literature values in patent US20170074857A1, “MEDICATION ADHERENCE MONITORING DEVICE” (UNIVERSITY OF FLORIDA RESEARCH FOUNDATION, INC., priority 2014, published 2017).

Conditions: cited from earlier work

CCC(C)=O [Formulation 2-butanone, 2-butanone]
blood elimination t1/2 (in vivo): 49 to 96 min | pulmonary uptake from air (inhalation exposure 100,000-200,000 ppb): 70%
